From EPA's ToxValDB 9.5 (doi:10.2903/j.efsa.2017.4980) come the findings set out here.

The test system of data set [1] is Neomysis kadiakensis.
The test system of data set [2] is Tagia sp. The conditions noted are these: acute; duration: 14 days; mortality.
Data set [3] concerns Oncorhynchus mykiss.
Data set [4] relates to Apis mellifera. The settings on record: acute, mortality.
Data set [5] concerns Colinus virginianus.
Data set [6] relates to Landoltia sp. The conditions noted are these: chronic/long-term; duration: 14 days.
For data set [7], the system named is Anas platyrhynchos. The settings on record: reproductive.
Data set [8] concerns Canidae. The settings on record: oral, Dog Other, organ weight.
The test system of data set [9] is Rattus norvegicus.
Data set [10] concerns Typhlodromus pyri. Nature of the data set: LR50; higher = less toxic. The conditions noted are these: not reported; mortality.

Converted amounts (≈) assume the structure as drawn.

Take `CCC(C)(NC(=O)c1cc(Cl)c(C)c(Cl)c1)C(=O)CCl` (configuration not stated) [Zoxamide]: the LC50 in data set [1] (acute, duration: 96 hours, mortality) was 0.076 µg/mL (≈ 0.226 µM); in data set [2], greater than 1070 mg/kg; in data set [3] (acute, duration: 96 hours, oral, feed, mortality), 0.16 µg/mL (≈ 0.475 µM). The NOEC in data set [1] (chronic/long-term, duration: 27 days) was found to be 0.0072 mg/L; in [2] it was 66.7 mg/kg; in data set [3] (chronic/long-term, duration: 95 days), 0.00348 mg/L; in data set [5] (reproduction developmental), 171 mg/kg-day; in data set [6], 0.009 mg/L; in data set [7] it was 123 mg/kg-day. For the same compound, the LD50 was greater than 100 µg/piece in data set [4] (dermal); greater than 33 µg/piece in [4] (oral, unspecified); greater than 2000 mg/kg-day in data set [5] (acute, oral, mortality); greater than 5000 mg/kg-day in data set [9] (acute, oral, mortality). Further, the NOAEL (as a rule, the highest dose or exposure tested at which no adverse effect was seen) in data set [8] (chronic, duration: 1 years) was 50 mg/kg-day; in data set [8] (subchronic, duration: 90 days), 50 mg/kg-day; in data set [9] (reproduction developmental, body weight) it was 360 mg/kg-day. Also, the LR50 in data set [10] was greater than 300 g/ha.
